In PMC12294753, “Development of INER-PP-F11N as the Peptide-Radionuclide Conjugate Drug Against CCK2 Receptor-Overexpressing Tumors” (International Journal of Molecular Sciences, 2025):
Where two headings read alike, the source gives them in different places. Where a SMILES comes first, the peptide text is derived from it. [ ]: non-standard residue; d: D form. The star is where a group is joined. DOTA = O=C(O)CN1CCN(CC(=O)O)CCN(CC(=O)*)CCN(CC(=O)O)CC1; Butanoyl(4-(4-MePh)) = Cc1ccc(CCCC(=O)*)cc1; 4Amb = NCc1ccc(C(=O)O)cc1; Nle = CCCC[C@H](N)C(=O)O

Key:
CCK2R = test system: CCK2R; set-up: method as in PMID 10494457, PMID 10188727; conditions: cited from earlier work
[1] = test system: human gastric cancer ascites cells; set-up: method as in PMID 10494457, PMID 10188727; conditions: mouse models inoculated with human gastric cancer ascites cells; cited from earlier work
[2] = test system: human pancreatic cancer cells; set-up: method as in PMID 10636070, PMID 7813546; conditions: cited from earlier work
[3] = Metabolic stability analysis (radio-HPLC) in PBS at 4 °C or FBS at 37 °C; format: in vitro ADME
Procedure: DOTA-PP-F11N, DOTA-INER-PP-F11N-1, and DOTA-INER-PP-F11N-2 were labeled with In-111 and Lu-177 for further experiments. The detection of free In-111 after ITLC extension was defined as 0% radiolabeling efficiency. […]
To measure the labeling efficiency, ITLC was performed on glass microfiber chromatography paper impregnated with a silica gel (Agilent Technologies, Santa Clara, CA, USA) as described previously. Briefly, the ITLC sheets were developed with 10% methanol as solvent (Rf free Lu-177 = 0, Rf Lu-177-labeled compounds = 1) and measured using a radioactive scanner (AR-2000 radio-TLC […] Imaging Scanner, Bioscan, France). The sample was mixed with acetonitrile at a 1:1 (v/v) ratio, followed by centrifugation at 16,000× g for 5 min. The resulting supernatant was subsequently analyzed using HPLC with UV (220[…]) and radio detector with a Zorbax SB-C18 column (Agilent Technologies, Santa Clara, CA, USA). The flow rate was 0.8 mL/min, with the gradient mobile phase going from 90% A […] buffer (0.1% TFA in water) and 10% B buffer (0.1% TFA in acetonitrile) to 90% B buffer […] within 20 min.

A431-CCK2R (−) cells = assay: In vitro binding and internalization assay, A431-CCK2R (−) cells; format: cell-based; conditions: 37 °C
Procedure: (§1) In vitro binding and internalization activities were measured using a gamma counter (WIZARD 1480, Perkin-Elmer). Briefly, A431-CCK2R (+) and A431-CCK2R (−) cells were seeded on 24-well plates (1 × 10^5 cells/well, Corning, NY, USA) for 12 h. The plated cells were treated with 30 ± 10 GBq/µmol of [^177Lu]Lu-DOTA-PP-F11N, [^177Lu]Lu-DOTA-INER-PP-F11N-1, or [^177Lu]Lu-DOTA-INER-PP-F11N-2 (1 mL/well) and then incubated at 37 °C for either 1 or 4 h. After incubation, the medium was collected, and the cells were then washed with ice-cold buffer. The medium and washed PBS were collected in tube 0. The washed cells were treated with glycine–HCl buffer (0.1 M, pH 3.0) and incubated for 10 min. After incubation, cells were washed again with glycine–HCl buffer. Both glycine-HCl buffer solutions were collected in tube 1. The washed cells were treated with 1 N NaOH (1 mL/well) and incubated for 10 min for cell lysis. After incubation, the cells were washed once with 1 N NaOH. The cell lysate solution was collected in tube 2. All tubes were analyzed using a gamma counter to detect radioactivity. Data were obtained from at least three independent experiments. The respective formulae for in vitro surface binding activity and internalization were as follows:Surface binding = tube 1/(tube 0 + tube 1 + tube 2) × 100%.Internalization = tube 2/(tube 0 + tube 1 + tube 2) × 100%.

A431-CCK2R (+) cells = assay: In vitro binding and internalization assay, A431-CCK2R (+) cells; format: cell-based; set-up: surface binding activity / internalization activity: concentration or dose not given beside the values; conditions: for internalization activity / surface binding activity: A431-CCK2R (+) cells, 37 °C; for enhancement of internalization activity compared with PP-F11N: A431 CCK2R (+) cells, compared with conventional [^177Lu]Lu-DOTA-PP-F11N
Procedure: as §1

[4] = test system: A431-CCK2R (−)/A431-CCK2R (+) tumor-bearing mice; assay: NanoSPECT/CT imaging of tumor-bearing mice; format: in vivo
Procedure: (§2) To generate A431-CCK2R (+) and A431-CCK2R (−) tumor-bearing mice models, mice (3 per group) were inoculated subcutaneously with 6 × 10^6 cells, which were injected into the inner right back leg for A431-CCK2R (+) tumors and the left back leg for A431-CCK2R (−) tumors, respectively. These xenografts were monitored until the tumor volume reached approximately 200–500 mm^3 [57]. The mice were then randomized to subgroups for further experiments. The formula for calculating tumor volume (V) is V = 4/3πr^3.
The NanoSPECT/CT® plus scanner system (Mediso Medical Imaging Systems; Budapest, Hungary) was utilized to detect in vivo tumors in the in vivo animal models. Both A431-CCK2R (+) and A431-CCK2R (−) cancer cells were inoculated subcutaneously into the inner right leg and left back leg of the mice. Radiopharmaceuticals—[^111In]In-DOTA-PP-F11N, [^111In]In-DOTA-INER-PP-F11N-1, and [^111In]In-DOTA-INER-PP-F11N-2 (1 mCi)—were injected once the mean tumor volume reached approximately 200–500 mm^3. Inhalant (1–2% isoflurane) was used to anesthetize the mice during imaging acquisition. X-ray CT images and SPECT images were taken 4, 24, and 48 h after tail-vein injection. NanoSPECT imaging was acquired using nine multi-pinhole gamma detectors with high-resolution collimators. The energy window was set at 171 and 245 KeV ± 10%, the image size was set at 256 × 256, and the field of view was set at 60 mm × 100 mm.
For Lu-177, only 208 keV photons were used for imaging, with an energy window set at 208 keV ± 10%. Although Lu-177 also emits lower abundance photons at 113 keV, the 208 keV photon provides better image quality due to reduced scatter and higher energy resolution. Therefore, the gamma camera energy windows were specifically tailored to the photon emission profiles of each radionuclide to ensure optimal detection efficiency and image accuracy.
(§3) We investigated therapeutic responses in mice receiving [^177Lu]Lu-DOTA-PP-F11N, [^177Lu]Lu-DOTA-INER-PP-F11N-1, or [^177Lu]Lu-DOTA-INER-PP-F11N-2. A431-CCK2R (+) and A431-CCK2R (−) cells were implanted subcutaneously into the right and left inner hind legs of NOD/SCID mice. Once the tumors reached a volume of 200–500 mm^3, the mice were intravenously injected with either 200 μCi of [^177Lu]Lu-DOTA-PP-F11N, [^177Lu]Lu-DOTA-INER-PP-F11N-1, [^177Lu]Lu-DOTA-INER-PP-F11N-2, or PBS (as a non-radioactive control). The NanoSPECT/CT® plus scanner system (Mediso Medical Imaging Systems; Budapest, Hungary) was utilized to detect and image tumors in the mouse models. Tumor volumes were measured twice a week for 4 weeks.

[5] = Biodistribution study in tumor-bearing mice; format: in vivo; conditions: mouse, intravenous, total radioactivity, 72 h after tail-vein injection, tumor-bearing mice
Procedure: as §2
(§4) Mice were sacrificed via CO2 asphyxiation 72 h after intravenous injection of 50–100 μCi (50–100 μL) of radiolabeled DOTA-PP-F11N, DOTA-INER-PP-F11N-1, or DOTA-INER-PP-F11N-2 [58]. Tumors and organs of interest were collected for further pathological examinations. The PerkinElmer 2480 Automatic Gamma Counter (PerkinElmer, Waltham, MA, USA) was used to measure radioactivity; the data are presented as the percentage injected dose per gram of tissue (%ID/g).

A431-CCK2R (+) tumors [6] = assay: Biodistribution study in tumor-bearing mice; format: in vivo; conditions: biodistribution studies
Procedure: as §2, §4

A431-CCK2R (+) tumors [7] = assay: Therapeutic responses to Lu-177-labeled CCK2R analogs in CCK2R-expressing cancer-bearing mice; format: in vivo; conditions: 200 μCi intravenously
Procedure: as §2, §3

[8] = Histopathological examinations (H&E) of mice after radiolabeled drug administration; format: in vivo; conditions: light microscopy
Source text: To investigate the pathological alterations in tumor-bearing mice receiving radiopharmaceuticals, […] tissues, including tumors, heart, liver, and kidneys, were collected. The specimens were first fixed using 10% buffered neutral formalin and then embedded in paraffin. Sections of 3–5 μm thickness were stained with H&E and examined using light microscopy (40 × and 20 ×).

## C[C@](Cc1c[nH]c2ccccc12)(NC(=O)OC1[C@H]2C[C@@H]3C[C@@H](C[C@H]1C3)C2)C(=O)NC[C@H](NC(=O)CCC(=O)O)c1ccccc1 (stereo partly shown) [CI-988]
CCK2R
  gastrin binding to CCK2R: block gastrin binding to CCK2R
[1]
  survival: improve survival

## Cc1cccc(NC(=O)N[C@@H]2N=C(c3ccccc3)c3ccccc3N(C)C2=O)c1 [L-365260]
[2]
  exogenous gastrin-induced proliferation: inhibited

## CCCC[C@H](NC(=O)[C@H](Cc1c[nH]c2ccccc12)NC(=O)CNC(=O)[C@H](Cc1ccc(O)cc1)NC(=O)[C@H](C)NC(=O)[C@@H](CCC(=O)O)NC(=O)[C@@H](CCC(=O)O)NC(=O)[C@@H](CCC(=O)O)NC(=O)[C@@H](CCC(=O)O)NC(=O)[C@@H](CCC(=O)O)NC(=O)[C@@H](CCC(=O)O)NC(=O)c1ccc(CNC(=O)[C@H](CCCCNC(=O)CCCc2ccc(C)cc2)NC(=O)CN2CCN(CC(=O)O)CCN(CC(=O)O)CCN(CC(=O)O)CC2)cc1)C(=O)N[C@@H](CC(=O)O)C(=O)N[C@@H](Cc1ccccc1)C(N)=O [[^177Lu]Lu-DOTA-INER-PP-F11N-1, metal not drawn] ({DOTA}-K(Butanoyl(4-(4-MePh)))[4Amb][dE][dE][dE][dE][dE][dE]AYGW[Nle]DF-NH2)
[3]; 4 °C PBS, 144 h after Lu-177 labeling
  metabolic stability: more than 95%
[3]; Lu-177-labeled, 37 °C FBS, 144 h
  metabolic stability: > 99%
A431-CCK2R (−) cells; 1 h
  internalization activity: 0.32 ± 0.10 %IA/106 cells
  surface binding activity: 1.08 ± 0.49 %IA/106 cells
A431-CCK2R (−) cells; 4 h
  internalization activity: 0.17 ± 0.03 %IA/106 cells
A431-CCK2R (+) cells; 1 h
  internalization activity: 45.32 ± 6.12%
  surface binding activity: 5.93 ± 1.68%
A431-CCK2R (+) cells; 4 h
  internalization activity: 90.49 ± 5.65%
  surface binding activity: 14.57 ± 4.06%
A431-CCK2R (+) cells
  enhancement of internalization activity compared with PP-F11N: 26.7%
A431-CCK2R (+) cells; listed as 177Lu-DOTA-INER-PP-F11N-1
  enhancement of internalization activity compared with PP-F11N: 27%
[4]; compared with Lu-177-labeled PP-F11N over the same period
  radioactivity within the kidneys on NanoSPECT/CT: significantly lower
[4]; tail-vein injection, Lu-177-labeled
  radiotracer accumulation in the tumor region on NanoSPECT/CT: avid radiotracer uptake within the tumor
[5]; kidneys, read-out: radiotracer accumulation in the kidneys
  tissue uptake at 72 h: 7.4 ± 2.3 %ID/g
[5]; tumor (A431-CCK2R (+)), read-out: tumor uptake of radiopharmaceuticals
  tissue uptake at 72 h: 1.14 ± 0.92 %ID/g
A431-CCK2R (+) tumors [6]
  tumor-to-kidney ratio: favorable
A431-CCK2R (+) tumors [7]
  tumor volume at D23: 841.33 ± 165.70 mm^3
[8]
  histopathological changes in the kidneys: no significant histopathological changes
  histopathological changes in the liver and heart: no significant histopathological changes
